Assay results taken from patent publication US20260217687A1 (NeoPhore Limited, priority 2023, published 2026).

Each molecule was assayed against T1, recombinant N-terminal MLH1 (residues 15-340) (Homo sapiens, UniProt P40692) (assay: Fluorescence Polarisation Assay for MLH1). Conditions: 100 nM N-terminal MLH1, 5 nM probe compound.
T1 construct: recombinant N-terminal MLH1 (residues 15-340)
T1 sequence (P40692 15-340): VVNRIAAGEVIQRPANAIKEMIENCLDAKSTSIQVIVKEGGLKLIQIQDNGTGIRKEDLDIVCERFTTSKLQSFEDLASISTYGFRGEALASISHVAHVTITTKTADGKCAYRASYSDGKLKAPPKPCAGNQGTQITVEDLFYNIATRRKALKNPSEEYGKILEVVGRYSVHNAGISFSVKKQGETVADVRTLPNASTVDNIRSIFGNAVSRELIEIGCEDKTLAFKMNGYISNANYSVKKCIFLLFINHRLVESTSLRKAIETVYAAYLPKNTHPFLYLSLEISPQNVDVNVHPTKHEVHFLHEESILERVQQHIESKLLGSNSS
Format: binding
Protocol: Fluorescence Polarisation Assay for MLH1
Test compounds, as 10 mM DMSO stocks, were dispensed into a 384-well Low Flange Black Flat Bottom Polystyrene Non-binding Surface plate (Corning®, item number 3575) using a Labcyte Echo acoustic liquid handler. […] 20 μL of a 2× solution (200 nM) of recombinant N-terminal MLH1 (residues 15-340) in assay buffer (25 mM HEPES, pH 7.5, 250 mM NaCl, 10 mM MgCl2, 0.01% Triton X-100, 5 mM Dithiothreitol) was added to all wells in columns 1-23 and 20 μL assay buffer was added to all wells in column 24 using an E1-ClipTip pipette (ThermoFisher). Plates were centrifuged for 1 minute at 250 xg and were incubated at room temperature for 30 minutes prior to the addition of 20 μL of 2×(10 nM) of 5-((5-(4-((2-(2-(Benzyloxy)-4,6-dihydroxybenzoyl)isoindolin-5-yl)methyl)piperazin-1-yl)pentyl)carbamoyl)-2-(6-(dimethylamino)-3-(dimethyliminio)-3H-xanthen-9-yl)benzoate (referred to hereinafter as “probe compound”) in assay buffer (prepared from a 1 mM DMSO stock) with an E1-ClipTip pipette (ThermoFisher). The final concentration of N-terminal MLH1 was 100 nM and the final concentration of the probe compound was 5 nM. Compound plates were centrifuged for 1 minute at 250 xg for 1 minute and immediately read on a PheraStar FSX (fitted with 384-well aperture spoon and 590 675 675 FP optic module). The gain and focus were adjusted before each plate was read so that the polarisation of a no enzyme control (column 24) was equal to 35 mP. Data were normalised against the no inhibitor controls (column 23) and no enzyme controls (column 24).

SMILES | IC50
O=C(c1c(O)cc(C(F)F)cc1OCc1ccccn1)N1Cc2cccc(N[C@H]3CCOC3)c2C1 [Example 4.9, (S)-(4-(Difluoromethyl)-2-hydroxy-6-(pyridin-2-ylmethoxy)phenyl) (4-((tetrahydrofuran-3-yl)amino)isoindolin-2-yl) methanone] | 100 to 1000 nM
COc1cc2c(c(N[C@@H]3CCOC3)c1)CN(C(=O)c1c(O)cc(C#N)cc1OCc1ccccc1)C2 [Example 10.13, (R)-3-(Benzyloxy)-5-hydroxy-4-(6-methoxy-4-((tetrahydrofuran-3-yl)amino)isoindoline-2-carbonyl)benzonitrile] | 100 to 1000 nM
N#Cc1cc(O)c(C(=O)N2CCc3cccc(N[C@H]4CCOC4)c3C2)c(OCc2ccccc2)c1 [Example 17, (S)-3-(Benzyloxy)-5-hydroxy-4-(8-((tetrahydrofuran-3-yl)amino)-1,2,3,4-tetrahydroisoquinoline-2-carbonyl)benzonitrile] | 100 to 1000 nM
CN1CC[C@@H](Oc2ccc3c(c2)CN(C(=O)c2c(O)cc(C(F)F)cc2OCc2ccccc2)CC3)C1 [Example 4.67, (R)-(2-(Benzyloxy)-4-(difluoromethyl)-6-hydroxyphenyl)(7-((1-methylpyrrolidin-3-yl)oxy)-3,4-dihydroisoquinolin-2(1H)-yl)methanone] | 100 to 1000 nM
CN(C)Cc1ccc2c(c1)CCN(C(=O)c1c(O)cc(C(F)F)cc1OCc1ccccc1)C2 [Example 4.43, (2-(Benzyloxy)-4-(difluoromethyl)-6-hydroxyphenyl)(6-((dimethylamino)methyl)-3,4-dihydroisoquinolin-2(1H)-yl)methanone] | 100 to 1000 nM
CN1CC(Oc2ccc3c(c2)CN(C(=O)c2c(O)cc(C(F)F)cc2OCc2ccccc2)CC3)C1 [Example 4.69, (2-(Benzyloxy)-4-(difluoromethyl)-6-hydroxyphenyl)(7-((1-methylazetidin-3-yl)oxy)-3,4-dihydroisoquinolin-2(1H)-yl)methanone] | 100 to 1000 nM
CC(=O)N1CC(Nc2cccc3c2CN(C(=O)c2c(O)cc(C#N)cc2OCc2ccccc2)C3)C1 [Example 16, 4-(4-((1-Acetylazetidin-3-yl)amino)isoindoline-2-carbonyl)-3-(benzyloxy)-5-hydroxybenzonitrile] | 100 to 1000 nM
O=C(c1c(O)cc(C(F)F)cc1OCc1ccccc1)N1Cc2ccc(Cn3ccnc3)cc2C1 [Example 4.50, (5-((1H-Imidazol-1-yl)methyl)isoindolin-2-yl)(2-(benzyloxy)-4-(difluoromethyl)-6-hydroxyphenyl)methanone] | 100 to 1000 nM
N#Cc1cc(O)c(C(=O)N2Cc3cccc(N[C@H]4CCOC4)c3C2)c(OCc2ccccc2)c1 [Example 12, (S)-3-(Benzyloxy)-5-hydroxy-4-(4-((tetrahydrofuran-3-yl)amino)isoindoline-2-carbonyl)benzonitrile] | 100 to 1000 nM
CN(C)CCOc1cc2c(c(N[C@@H]3CCOC3)c1)CN(C(=O)c1c(O)cc(C#N)cc1OCc1ccccc1)CC2 [Example 14, (R)-3-(Benzyloxy)-4-(6-(2-(dimethylamino)ethoxy)-8-((tetrahydrofuran-3-yl)amino)-1,2,3,4-tetrahydroisoquinoline-2-carbonyl)-5-hydroxybenzonitrile] | 100 to 1000 nM
COc1cc2c(c(N[C@H]3CCOC3)c1)CN(C(=O)c1c(O)cc(Cl)cc1OCc1ccccc1)C2 [Example 10.2, (S)-(2-(Benzyloxy)-4-chloro-6-hydroxyphenyl)(6-methoxy-4-((tetrahydrofuran-3-yl)amino)isoindolin-2-yl)methanone] | 100 to 1000 nM
N#Cc1cc(O)c(C(=O)N2Cc3cccc(NC4COC4)c3C2)c(OCc2ccccc2)c1 [Example 10.26, 3-(Benzyloxy)-5-hydroxy-4-(4-(oxetan-3-ylamino)isoindoline-2-carbonyl)benzonitrile] | 100 to 1000 nM
O=C(c1c(O)cc(C(F)(F)F)cc1OCc1ccccc1)N1Cc2cccc(N[C@H]3CCOC3)c2C1 [Example 23, (S)-(2-(Benzyloxy)-6-hydroxy-4-(trifluoromethyl)phenyl) (4-((tetrahydrofuran-3-yl)amino)isoindolin-2-yl) methanone] | 100 to 1000 nM
O=C1OCCC1Nc1cccc2c1CN(C(=O)c1c(O)cc(C(F)F)cc1OCc1ccccc1)C2 (stereo not drawn) [Example 4.16, 3-((2-(2-(Benzyloxy)-4-(difluoromethyl)-6-hydroxybenzoyl)isoindolin-4-yl)amino)dihydrofuran-2(3H)-one] | 100 to 1000 nM
CN1CCN(Cc2ccc3c(c2)CN(C(=O)c2c(O)cc(C#N)cc2OCc2ccccc2)C3)CC1 [Example 10.34, 3-(Benzyloxy)-5-hydroxy-4-(5-((4-methylpiperazin-1-yl)methyl)isoindoline-2-carbonyl)benzonitrile] | 100 to 1000 nM
COc1cc2c(c(N[C@@H]3CCOC3)c1)CN(C(=O)c1c(O)cc(Cl)cc1OCc1ccccc1)C2 [Example 10.1, (R)-(2-(Benzyloxy)-4-chloro-6-hydroxyphenyl)(6-methoxy-4-((tetrahydrofuran-3-yl)amino)isoindolin-2-yl)methanone] | 1000 to 10000 nM
O=C(c1c(O)cc(Cl)cc1OCc1ccccc1)N1Cc2cccc(N[C@@H]3CCOC3)c2C1 [Example 7, (R)-(2-(Benzyloxy)-4-chloro-6-hydroxyphenyl)(4-((tetrahydrofuran-3-yl)amino)isoindolin-2-yl)methanone] | 1000 to 10000 nM
CN(C)CCOc1cc2c(c(N[C@@H]3CCOC3)c1)CN(C(=O)c1c(O)cc(C(F)F)cc1OCc1ccccc1)C2 [Example 4.75, (R)-(2-(Benzyloxy)-4-(difluoromethyl)-6-hydroxyphenyl) (6-(2-(dimethylamino)ethoxy)-4-((tetrahydrofuran-3-yl)amino)isoindolin-2-yl)methanone] | < 100 nM
COc1cc2c(c(N[C@H]3CCOC3)c1)CN(C(=O)c1c(O)cc(C(F)F)cc1OCc1ccccc1)CC2 [Example 4.20, (S)-(2-(Benzyloxy)-4-(difluoromethyl)-6-hydroxyphenyl)(6-methoxy-8-((tetrahydrofuran-3-yl)amino)-3,4-dihydroisoquinolin-2(1H)-yl)methanone] | 100 to 1000 nM
N#Cc1cc(O)c(C(=O)N2Cc3ccc(OC4CCOCC4)cc3C2)c(OCc2ccccc2)c1 [Example 10.36, 3-(Benzyloxy)-5-hydroxy-4-(5-((tetrahydro-2H-pyran-4-yl)oxy)isoindoline-2-carbonyl)benzonitrile] | 100 to 1000 nM
O=C(c1c(O)cc(C(F)F)cc1OCc1ccccc1)N1Cc2cnc(N3CCOCC3)cc2C1 [Example 27.9, (2-(Benzyloxy)-4-(difluoromethyl)-6-hydroxyphenyl)(6-morpholino-1,3-dihydro-2H-pyrrolo[3,4-c]pyridin-2-yl)methanone] | 100 to 1000 nM
Cn1cncc1-c1cc2c(c(N[C@H]3CCOC3)c1)CN(C(=O)c1c(O)cc(C(F)F)cc1OCc1ccccc1)CC2 [Example 4.26, (S)-(2-(Benzyloxy)-4-(difluoromethyl)-6-hydroxyphenyl) (6-(1-methyl-1H-imidazol-5-yl)-8-((tetrahydrofuran-3-yl)amino)-3,4-dihydroisoquinolin-2(1H)-yl)methanone] | 100 to 1000 nM
COCCNc1cccc2c1CN(C(=O)c1c(O)cc(C(F)F)cc1OCc1ccccc1)CC2 [Example 4.37, (2-(Benzyloxy)-4-(difluoromethyl)-6-hydroxyphenyl)(8-((2-methoxyethyl)amino)-3,4-dihydroisoquinolin-2(1H)-yl)methanone] | 1000 to 10000 nM
O=C(c1c(O)cc(C(F)F)cc1OCc1ccccc1)N1Cc2cc(Cn3ccnc3)cc(N[C@H]3CCOC3)c2C1 [Example 4.19, (S)-(6-((1H-Imidazol-1-yl)methyl)-4-((tetrahydrofuran-3-yl)amino)isoindolin-2-yl) (2-(benzyloxy)-4-(difluoromethyl)-6-hydroxyphenyl)methanone] | 100 to 1000 nM
COc1cc2c(c(N[C@H]3CCOC3)c1)CN(C(=O)c1c(O)cc(C(F)F)cc1OCc1ccccc1)C2 [Example 4.18, (S)-(2-(Benzyloxy)-4-(difluoromethyl)-6-hydroxyphenyl)(6-methoxy-4-((tetrahydrofuran-3-yl)amino)isoindolin-2-yl)methanone] | 100 to 1000 nM
COc1ccc2c(c1)CN(C(=O)c1c(O)cc(C(F)F)cc1OCc1ccccc1)CC2 [Example 4.38, (2-(Benzyloxy)-4-(difluoromethyl)-6-hydroxyphenyl)(7-methoxy-3,4-dihydroisoquinolin-2(1H)-yl)methanone] | 1000 to 10000 nM
CNc1cccc2c1CN(C(=O)c1c(O)cc(C(F)F)cc1OCc1ccccc1)CC2 [Example 4.36, (2-(Benzyloxy)-4-(difluoromethyl)-6-hydroxyphenyl)(8-(methylamino)-3,4-dihydroisoquinolin-2(1H)-yl)methanone] | 1000 to 10000 nM
